# Experimental data as given in ChEMBL document CHEMBL3045546, “Synthesis and antimicrobial screening of 4-thiazolidinone and 2-azetidinone derivatives of piperazine” (2013).
# Tests used:
# Assay type in all cases: functional
# Bacillus cereus = assay: Antimicrobial activity against Bacillus cereus ATCC 11778 assessed as growth inhibition by broth dilution method
# Bacillus pumilus = assay: Antimicrobial activity against Bacillus pumilus ATCC 14884 assessed as growth inhibition by broth dilution method
# Staphylococcus hominis = assay: Antimicrobial activity against Staphylococcus hominis ATCC 27844 assessed as growth inhibition by broth dilution method
# Staphylococcus aureus = assay: Antimicrobial activity against Staphylococcus aureus ATCC 25923 assessed as growth inhibition by broth dilution method
# [1] = system: Staphylococcus epidermidis; assay: Antimicrobial activity against Staphylococcus epidermidis ATCC 12228 assessed as growth inhibition by broth dilution method
# Micrococcus luteus = assay: Antimicrobial activity against Micrococcus luteus ATCC 4698 assessed as growth inhibition by broth dilution method
# Bacillus subtilis = assay: Antimicrobial activity against Bacillus subtilis ATCC 6633 assessed as growth inhibition by broth dilution method
# Aspergillus fumigatus = assay: Antimicrobial activity against Aspergillus fumigatus assessed as growth inhibition by broth dilution method
# Aspergillus flavus = assay: Antimicrobial activity against Aspergillus flavus ATCC 15517 assessed as growth inhibition by broth dilution method
# Trichoderma viride = assay: Antimicrobial activity against Hypocrea rufa ATCC 52440 assessed as growth inhibition by broth dilution method
# Fusarium solani = assay: Antimicrobial activity against Fusarium solani ATCC 38136 assessed as growth inhibition by broth dilution method
# Trichophyton longifusum = assay: Antimicrobial activity against Trichophyton longifusum ATCC 22397 assessed as growth inhibition by broth dilution method
# Rhizoctonia solani = assay: Antimicrobial activity against Rhizoctonia solani ATCC 76131 assessed as growth inhibition by broth dilution method
# Alternaria alternata = assay: Antimicrobial activity against Alternaria alternata ATCC 66868 assessed as growth inhibition by broth dilution method
# Microsporum canis = assay: Antimicrobial activity against Arthroderma otae ATCC 11622 assessed as growth inhibition by broth dilution method
# Candida albicans = assay: Antimicrobial activity against Candida albicans ATCC 10231 assessed as growth inhibition by broth dilution method
# Aspergillus awamori = assay: Antimicrobial activity against Aspergillus awamori ATCC 22342 assessed as growth inhibition by broth dilution method
# Aspergillus niger = assay: Antimicrobial activity against Aspergillus niger ATCC 9142 assessed as growth inhibition by broth dilution method
# Pseudomonas aeruginosa = assay: Antimicrobial activity against Pseudomonas aeruginosa ATCC 10145 assessed as growth inhibition by broth dilution method
# Escherichia coli = assay: Antimicrobial activity against Escherichia coli ATCC 25922 assessed as growth inhibition by broth dilution method
# Salmonella typhi = assay: Antimicrobial activity against Salmonella enterica subsp. enterica serovar Typhi ATCC 19430 assessed as growth inhibition by broth dilution method
# Klebsiella pneumoniae = assay: Antimicrobial activity against Klebsiella pneumoniae ATCC 13883 assessed as growth inhibition by broth dilution method
# Proteus mirabilis = assay: Antimicrobial activity against Proteus mirabilis ATCC 49565 assessed as growth inhibition by broth dilution method
# Proteus vulgaris = assay: Antimicrobial activity against Proteus vulgaris ATCC 13315 assessed as growth inhibition by broth dilution method
Compound,MIC (Bacillus cereus) [µg/mL],MIC (Bacillus pumilus) [µg/mL],MIC (Staphylococcus hominis) [µg/mL],MIC (Staphylococcus aureus) [µg/mL],MIC [1] [µg/mL],MIC (Micrococcus luteus) [µg/mL],MIC (Bacillus subtilis) [µg/mL],MIC (Aspergillus fumigatus) [µg/mL],MIC (Aspergillus flavus) [µg/mL],MIC (Trichoderma viride) [µg/mL],MIC (Fusarium solani) [µg/mL],MIC (Trichophyton longifusum) [µg/mL],MIC (Rhizoctonia solani) [µg/mL],MIC (Alternaria alternata) [µg/mL],MIC (Microsporum canis) [µg/mL],MIC (Candida albicans) [µg/mL],MIC (Aspergillus awamori) [µg/mL],MIC (Aspergillus niger) [µg/mL],MIC (Pseudomonas aeruginosa) [µg/mL],MIC (Escherichia coli) [µg/mL],also measured
O=C(CCl)N1CCN(CCN2C(=O)C(Cl)C2c2cccc(O)c2)CC1 (stereo not drawn),37.5,37.5,37.5,37.5,18.8,18.8,18.8,75,75,37.5,37.5,75,37.5,37.5,75,37.5,75,37.5,37.5,18.8,MIC (Salmonella typhi): 37.5 µg/mL; MIC (Klebsiella pneumoniae): 37.5 µg/mL; MIC (Proteus mirabilis): 37.5 µg/mL; MIC (Proteus vulgaris): 18.8 µg/mL
O=C(CCl)N1CCN(CCN2C(=O)C(Cl)C2c2ccc(O)cc2)CC1 (stereo not drawn),9.37,9.37,9.37,9.37,9.37,9.37,9.37,9.37,9.37,9.37,18.8,18.8,9.37,18.8,9.37,18.8,9.37,9.37,9.37,4.68,MIC (Salmonella typhi): 9.37 µg/mL; MIC (Klebsiella pneumoniae): 9.37 µg/mL; MIC (Proteus mirabilis): 9.37 µg/mL; MIC (Proteus vulgaris): 4.68 µg/mL
O=C(CCl)N1CCN(CCN2C(=O)C(Cl)C2c2ccccc2)CC1 (stereo not drawn),18.8,18.8,37.5,18.8,37.5,18.8,75,75,75,75,75,37.5,75,37.5,75,75,75,75,18.8,37.5,MIC (Salmonella typhi): 37.5 µg/mL; MIC (Klebsiella pneumoniae): 37.5 µg/mL; MIC (Proteus mirabilis): 18.8 µg/mL; MIC (Proteus vulgaris): 37.5 µg/mL
COc1cc(C2C(Cl)C(=O)N2CCN2CCN(C(=O)CCl)CC2)ccc1O (stereo not drawn),9.37,9.37,9.37,9.37,9.37,4.68,9.37,18.8,9.37,18.8,18.8,9.37,9.37,18.8,18.8,9.37,18.8,18.8,4.68,9.37,MIC (Salmonella typhi): 4.68 µg/mL; MIC (Klebsiella pneumoniae): 9.37 µg/mL; MIC (Proteus mirabilis): 9.37 µg/mL; MIC (Proteus vulgaris): 9.37 µg/mL
COc1ccc(C2C(Cl)C(=O)N2CCN2CCN(C(=O)CCl)CC2)cc1 (stereo not drawn),9.37,9.37,4.68,9.37,4.68,9.37,9.37,9.37,9.37,18.8,18.8,9.37,9.37,9.37,18.8,18.8,9.37,18.8,9.37,4.68,MIC (Salmonella typhi): 9.37 µg/mL; MIC (Klebsiella pneumoniae): 9.37 µg/mL; MIC (Proteus mirabilis): 9.37 µg/mL; MIC (Proteus vulgaris): 9.37 µg/mL
O=C(CCl)N1CCN(CCN2C(=O)C(Cl)C2c2ccco2)CC1 (stereo not drawn),75,75,75,150,75,150,150,300,300,300,150,300,300,150,150,300,150,150,150,75,MIC (Salmonella typhi): 150 µg/mL; MIC (Klebsiella pneumoniae): 75 µg/mL; MIC (Proteus mirabilis): 150 µg/mL; MIC (Proteus vulgaris): 75 µg/mL
O=C(O)c1cn(C2CC2)c2cc(N3CCNCC3)c(F)cc2c1=O [CIPROFLOXACIN],2.34,2.34,2.34,2.34,2.34,2.34,2.34,,,,,,,,,,,,2.34,2.34,MIC (Salmonella typhi): 2.34 µg/mL; MIC (Klebsiella pneumoniae): 2.34 µg/mL; MIC (Proteus mirabilis): 2.34 µg/mL; MIC (Proteus vulgaris): 2.34 µg/mL
Clc1ccccc1C(c1ccccc1)(c1ccccc1)n1ccnc1 [CLOTRIMAZOLE],,,,,,,,4.68,2.34,2.34,4.68,4.68,2.34,1.17,4.68,2.34,4.68,2.34,,,
